Assays:
[1] = assay type: in vitro ADME, human; conditions: for half-life: human serum, 37 °C, 100 μM peptide, read-out: half-life t½ (converted); for degradation in human serum: within 24 h
Description: Serum stability was tested as described previously. Briefly, serum was obtained prepared from human blood (self-donor), allowed to coagulate for 2 h at 23 °C and centrifuged at 12,000 × g for 10 min. Peptides (100 μM) were incubated in serum for 2, 4, 6, 8, 10 and 24 h at 37 °C. To evaluate peptide stability, aliquots ([…]) were analysed via RP-HPLC (UltiMate 3000, Thermo Scientific Dionex, Vienna, Austria) on a C18 column (Phenomenex Kinetex, Aschaffenburg, Germany) with a 3% gradient using 0.1% (v/v) TFA and 90/10/0.1% (v/v/v) acetonitrile/H2O/TFA as eluents. Half-life (t1/2) of peptides was calculated using non-linear regression analysis using Graph Pad Prism.
Supplementary Fig. 5. Human serum stability of the inotocin D-analogue. [D-Arg 8 ]-inotocin […]
serum and their stability monitored via HPLC over a time course of 2, 4, 6, 8, 10 and 24 h. Melittin, a haemolytic peptide from the bee venom was used as a positive control f or peptide degradation.
Area under the curves of samples was determined and correlated to the negative control analyte, which was dissolved in 0.1% TFA; thus they were not subject to degradation and were assumed therefore as 100%. Peptide stability was expressed in percentage of peptide remaining.
(1 picture or pasted object on this page, not shown here)

V1aR = molecular target: V1aR; design: method as in earlier work; conditions: previous studies, ref [32][43], cited from earlier work
inotocin R (L. niger) = assay: Radioligand displacement of [3H] inotocin, inotocin receptor from L. niger; design: species or system Lasius niger; conditions: saturation binding experiments
Description: (§1) Chinese Hamster Ovary cells (CHO) were cultured in Ham’s F12 media supplemented with 10% fetal bovine serum (FBS), 1% PenStrep (all from Sigma-Aldrich, Munich, Germany) and grown in a humidified atmosphere of 37 °C, 5% CO2 and passaged on average twice per week. CHO cells were used for expression of inotocin receptor (L. niger, T. castaneum). Cell transfections were carried out with 10 μg of plasmid using Lipofectamine LTX (Life Technologies, Invitrogen, Carlsbad, USA) for invertebrate receptors. For the expression of human OTR, V1aR, V1bR and V2R, HEK293 cells were transfected using jetPRIME (Polyplus Transfections, Illkirch-Graffenstaden, France)[35]. Cells were maintained in DMEM (GE Healthcare Hy Clone™, Logan, USA) supplemented with 10% FBS and 1% PenStrep.
(§2) Unbound ligands were washed off (Skatron Cell Harvester). […] Bindings of [^3H] AVP and [^3H] […] Bindings of [^3H] inotocin to membranes (10 μg) expressing INTR from L. niger, or [^3H] inotocin to membranes (10 μg) expressing INTR from T. castaneum, respectively, were assayed for displacement with an excess of inotocin (10^−11 to 10^−5 M) (n ≥ 3, except where otherwise stated). […] Specific binding was calculated by subtracting the non-specific binding from the total binding. […] Inhibition constants (Ki) were calculated from IC50 using the method by Cheng and Prusoff[65].

[2] = molecular target: inotocin R (T. castaneum); assay: Radioligand displacement of [3H] inotocin, inotocin receptor from T. castaneum; design: species or system Tribolium castaneum; conditions: saturation binding experiments
Description: as §1, §2

## CC[C@H](C)[C@H](NC(=O)CN)C(=O)NCC(=O)N[C@@H](C)C(=O)N[C@H](C(=O)N[C@@H](CC(C)C)C(=O)N[C@@H](CCCCN)C(=O)N[C@H](C(=O)N[C@@H](CC(C)C)C(=O)N[C@H](C(=O)N[C@H](C(=O)NCC(=O)N[C@@H](CC(C)C)C(=O)N1CCC[C@H]1C(=O)N[C@@H](C)C(=O)N[C@@H](CC(C)C)C(=O)N[C@H](C(=O)N[C@@H](CO)C(=O)N[C@@H](Cc1c[nH]c2ccccc12)C(=O)N[C@H](C(=O)N[C@@H](CCCCN)C(=O)N[C@@H](CCCNC(=N)N)C(=O)N[C@@H](CCCCN)C(=O)N[C@@H](CCCNC(=N)N)C(=O)N[C@@H](CCC(N)=O)C(=O)N[C@@H](CCC(N)=O)C(N)=O)[C@@H](C)CC)[C@@H](C)CC)[C@@H](C)O)[C@@H](C)O)C(C)C)C(C)C [melittin]
[1]
  half-life: 42 min
  degradation in human serum: fully degraded

## NC(=O)CC[C@@H]1NC(=O)[C@H](Cc2ccccc2)NC(=O)[C@H](Cc2ccc(O)cc2)NC(=O)[C@@H](N)CSSC[C@@H](C(=O)N2CCC[C@H]2C(=O)N[C@@H](CCCN=C(N)N)C(=O)NCC(N)=O)NC(=O)[C@H](CC(N)=O)NC1=O [vasopressin, arginine-vasopressin]
[1]
  half-life: 60 min
  degradation in human serum: fully degraded

## [D-Arg8]-vasopressin
V1aR; read-out: binding affinity
  Ki: 781 nM
V1aR
  difference in affinity of peptide pair vasopressin/[D-Arg8]-vasopressin: ~ 200 fold

## [^3H] inotocin: tritiated inotocin radioligand, C[4,5-3H]LITNCPGR-NH2 as printed (tritium label; N-terminal Cys; C-terminal amide)
Inotocin R (L. niger)
  Kd: 0.9 nM
[2]
  Kd: 2.7 nM

Reference: PMC5286520 (Scientific Reports, 2017)
